These results are taken from patent US20220193076A1, “METHODS OF TREATING BREAST CANCER WITH TUCATINIB” (Seagen Inc., priority 2019, published 2022).

The target of one data set is CYP3A4 (Homo sapiens, UniProt P08684). Briefly: Example 2 Part D: effect of tucatinib on PK of substrate probe midazolam. Conditions: steady-state tucatinib in combination with tolbutamide/midazolam vs tolbutamide/midazolam alone. As to the method: (§1) A Phase 1, open-label, fixed-sequence, 5-part, drug-drug interaction study of tucatinib was conducted to evaluate the effects of CYP3A4 and CYP2C8 inhibition and induction on the pharmacokinetics of tucatinib and to evaluate the effects of tucatinib on the pharmacokinetics of substrates of CYP3A4, CYP2C8, CYP2C9, and P-glycoprotein in healthy male and female subjects.
Sequence of CYP3A4 (P08684 whole entry): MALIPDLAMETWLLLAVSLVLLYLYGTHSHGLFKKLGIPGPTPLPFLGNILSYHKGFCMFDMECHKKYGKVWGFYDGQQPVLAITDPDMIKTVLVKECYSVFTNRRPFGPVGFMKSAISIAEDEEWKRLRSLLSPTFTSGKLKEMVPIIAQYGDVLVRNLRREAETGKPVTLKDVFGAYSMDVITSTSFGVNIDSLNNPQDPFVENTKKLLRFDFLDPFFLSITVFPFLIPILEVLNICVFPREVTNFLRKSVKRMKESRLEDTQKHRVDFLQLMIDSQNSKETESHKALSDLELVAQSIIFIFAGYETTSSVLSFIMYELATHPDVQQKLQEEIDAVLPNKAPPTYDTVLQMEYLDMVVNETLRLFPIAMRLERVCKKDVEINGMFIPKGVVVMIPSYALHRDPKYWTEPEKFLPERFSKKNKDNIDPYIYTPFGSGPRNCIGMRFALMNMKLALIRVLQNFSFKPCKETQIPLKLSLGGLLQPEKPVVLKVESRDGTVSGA
(§2) Part B evaluates the effect of rifampin, a strong inducer of CYP3A4 and CYP2C8, on the PK of tucatinib. […] Part E evaluates the effect of tucatinib on the PK of a substrate probe of the transporter P-gp (digoxin). […] For Parts A, B, and C, tucatinib is given as a single oral dose because evaluating plasma exposures after a single dose of tucatinib is expected to provide an appropriate assessment of the impact of the probe drugs on tucatinib PK. In Parts D and E, tucatinib is given as a multiple-dosing regimen in order to examine its effects on probe drugs at steady state, at which maximal inhibition of CYP2C8, CYP2C9, CYP3A4, and P-gp by tucatinib should be achieved.
(§3) Secondary objectives of the study included: (1) assessing the safety and tolerability of tucatinib when administered alone and when co-administered with substrate probes of CYP2C8, CYP2C9, and CYP3A4; and (2) assessing the single-dose PK of tucatinib and assessing the multiple-dose, steady-state PK of tucatinib alone and in the presence of substrate probes of CYP2C8, CYP2C9, and CYP3A4 in healthy subjects.
(§4) They were discharged on Day 14 after completion of the in-patient assessments.
(§5) On Day 1, each subject received a single oral dose of 0.5 mg of repaglinide. […] From Day 4 to Day 13, each subject received oral doses of 300 mg of tucatinib, twice daily (BID). On Day 11, each subject received a single oral dose of repaglinide. […] Tucatinib was provided as 150-mg tablets (2 tablets for the 300-mg dose), repaglinide was provided as 0.5-mg tablets, olbutamide was provided as 500-mg tablets, and midazolam was provided as a syrup (2 mg/mL; 1 mL syrup for the 2-mg dose). Tucatinib, repaglinide, olbutamide and midazolam were administered before meals preceded by an at least 8-hour overnight fast.
(§6) Other noncompartmental PK parameters may be reported. Additionally, blood samples for determination of plasma concentrations of tucatinib and ONT-993 were collected at the time points indicated in FIG. 8. […] A single genotyping blood sample was collected to assess possible effect of CYP polymorphisms or other genetic polymorphisms on the magnitude of drug interactions of tucatinib with probe drugs and substrates.

A further data set has as its target CYP2C9 (Homo sapiens, UniProt P11712). In words: Example 2 Part D: effect of tucatinib on PK of substrate probe tolbutamide. Particulars: tolbutamide/midazolam in combination with steady-state tucatinib vs tolbutamide/midazolam alone. As to the method: as §1, §2, §3, §4
On Day 1, each subject received a single oral dose of 0.5 mg of repaglinide. […] From Day 4 to Day 13, each subject received oral doses of 300 mg of tucatinib, twice daily (BID). On Day 11, each subject received a single oral dose of repaglinide. […] Tucatinib was provided as 150-mg tablets (2 tablets for the 300-mg dose), repaglinide was provided as 0.5-mg tablets, olbutamide was provided as 500-mg tablets, and midazolam was provided as a syrup (2 mg/mL; 1 mL syrup for the 2-mg dose). […]

A further data set addresses P-gp (Homo sapiens, UniProt P08183). Briefly: Example 2 Part E: effect of tucatinib on PK of substrate probe digoxin. Particulars: digoxin in combination with steady-state tucatinib vs digoxin alone. As to the method:
as §1, §2
A single genotyping blood sample was collected to assess possible effect of CYP polymorphisms or other genetic polymorphisms on the magnitude of drug interactions of tucatinib with probe drugs and substrates.

The nature of data set [1]: Example 1: renal function (iohexol aGFR, serum creatinine, urine albumin). Type of data set: in vivo, human.
The subject of data set [2] is MATE1/2K. Briefly: clinical. Particulars: both, human, plasma.
In data set [3] the test system is MATE1/2K. In words: Phase 1 drug-drug interaction study: effect of tucatinib on metformin pharmacokinetics (Example 1).
For a further data set, the target named is T1, CYP2C8 (Homo sapiens, UniProt P10632).
T1 sequence (P10632 1-490): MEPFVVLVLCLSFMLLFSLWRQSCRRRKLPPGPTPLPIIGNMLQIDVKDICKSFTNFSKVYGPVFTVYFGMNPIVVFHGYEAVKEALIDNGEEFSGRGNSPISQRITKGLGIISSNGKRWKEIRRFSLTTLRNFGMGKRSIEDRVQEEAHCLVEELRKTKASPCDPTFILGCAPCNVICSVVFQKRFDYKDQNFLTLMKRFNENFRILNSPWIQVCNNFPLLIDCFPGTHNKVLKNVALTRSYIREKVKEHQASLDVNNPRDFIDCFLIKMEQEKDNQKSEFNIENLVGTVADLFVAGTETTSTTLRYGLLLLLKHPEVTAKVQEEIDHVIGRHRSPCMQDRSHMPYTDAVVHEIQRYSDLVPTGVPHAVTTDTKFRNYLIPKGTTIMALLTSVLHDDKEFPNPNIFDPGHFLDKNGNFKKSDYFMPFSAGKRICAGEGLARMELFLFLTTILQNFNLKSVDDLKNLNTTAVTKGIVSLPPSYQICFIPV
Briefly: Example 2 Part D: effect of tucatinib on PK of substrate probe repaglinide. It is filed as in vivo. Conditions: repaglinide in combination with steady-state tucatinib vs repaglinide alone. Also noted: endogenous in cells; host or cells: healthy human subjects, in vivo. Here is the method:
as §1, §2, §3, §4, §5, §6

Setting [4] is: coadministration of tucatinib with metformin compared to metformin alone.
Where [5] appears, read: Metformin with tucatinib (Test), n = 17.

Sequence of P-gp (P08183 whole entry): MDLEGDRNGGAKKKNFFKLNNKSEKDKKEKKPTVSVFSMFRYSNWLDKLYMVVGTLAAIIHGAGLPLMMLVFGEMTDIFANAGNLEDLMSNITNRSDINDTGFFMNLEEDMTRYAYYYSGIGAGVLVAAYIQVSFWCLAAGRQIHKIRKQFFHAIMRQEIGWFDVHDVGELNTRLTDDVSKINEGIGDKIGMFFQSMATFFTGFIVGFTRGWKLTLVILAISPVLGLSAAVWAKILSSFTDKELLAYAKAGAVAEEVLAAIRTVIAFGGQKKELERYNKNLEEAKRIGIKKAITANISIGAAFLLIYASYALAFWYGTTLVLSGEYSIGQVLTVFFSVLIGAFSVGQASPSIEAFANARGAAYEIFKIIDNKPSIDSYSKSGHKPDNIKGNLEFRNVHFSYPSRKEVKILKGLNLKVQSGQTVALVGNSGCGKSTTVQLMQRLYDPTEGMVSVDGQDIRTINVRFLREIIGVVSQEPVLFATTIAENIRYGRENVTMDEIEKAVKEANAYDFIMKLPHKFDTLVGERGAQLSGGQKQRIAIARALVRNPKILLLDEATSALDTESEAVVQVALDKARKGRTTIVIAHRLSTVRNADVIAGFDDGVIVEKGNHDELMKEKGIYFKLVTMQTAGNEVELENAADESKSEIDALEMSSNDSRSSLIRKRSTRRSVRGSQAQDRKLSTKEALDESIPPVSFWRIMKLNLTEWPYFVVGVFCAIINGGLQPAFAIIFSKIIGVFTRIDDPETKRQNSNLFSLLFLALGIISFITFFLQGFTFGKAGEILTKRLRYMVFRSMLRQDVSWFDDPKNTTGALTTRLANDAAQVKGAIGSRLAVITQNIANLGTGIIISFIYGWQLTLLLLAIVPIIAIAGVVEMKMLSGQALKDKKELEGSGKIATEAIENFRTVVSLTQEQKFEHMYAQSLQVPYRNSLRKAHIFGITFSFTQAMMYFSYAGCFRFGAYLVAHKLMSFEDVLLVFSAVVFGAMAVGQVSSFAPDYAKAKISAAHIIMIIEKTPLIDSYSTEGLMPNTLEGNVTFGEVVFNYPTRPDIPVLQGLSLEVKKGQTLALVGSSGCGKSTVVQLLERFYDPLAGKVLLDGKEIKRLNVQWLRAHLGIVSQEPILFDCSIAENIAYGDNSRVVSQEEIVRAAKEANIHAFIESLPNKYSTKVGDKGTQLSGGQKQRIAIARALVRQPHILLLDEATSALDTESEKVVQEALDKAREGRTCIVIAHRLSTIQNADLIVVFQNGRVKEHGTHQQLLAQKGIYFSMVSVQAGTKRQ
Sequence of CYP2C9 (P11712 whole entry): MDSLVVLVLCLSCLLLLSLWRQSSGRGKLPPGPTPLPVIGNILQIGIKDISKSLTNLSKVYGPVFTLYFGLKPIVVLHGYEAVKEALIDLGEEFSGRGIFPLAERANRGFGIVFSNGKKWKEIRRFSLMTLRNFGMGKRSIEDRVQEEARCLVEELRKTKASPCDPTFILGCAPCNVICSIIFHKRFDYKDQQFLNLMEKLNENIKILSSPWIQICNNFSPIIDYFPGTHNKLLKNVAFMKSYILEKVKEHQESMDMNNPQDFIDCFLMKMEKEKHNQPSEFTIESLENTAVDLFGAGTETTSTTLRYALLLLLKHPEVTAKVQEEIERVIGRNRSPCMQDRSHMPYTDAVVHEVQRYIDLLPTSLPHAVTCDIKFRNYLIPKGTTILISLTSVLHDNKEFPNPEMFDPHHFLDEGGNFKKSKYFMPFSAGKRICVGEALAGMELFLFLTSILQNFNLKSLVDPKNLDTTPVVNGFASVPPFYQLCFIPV

Take `OCc1ncc2n1-c1ccc(Cl)cc1C(c1ccccc1F)=NC2` [1-hydroxymidazolam]: on CYP3A4, the “Geometric LS mean ratio (90% CI), AUC0-∞” value was 1.02 (0.903, 1.16); the “Geometric LS mean ratio (90% CI), AUClast” value is 0.945 (0.848, 1.05); the “Geometric LS mean ratio (90% CI), Cmax” value is on record as 0.593 (0.507, 0.694); the “Geometric mean MRAUC0-∞, decreased by” value is listed as “approximately 82.8%”. Also, the “Geometric mean MRCmax, decreased by” value at CYP3A4 is about 80.4%.

On to `CCCCNC(=O)NS(=O)(=O)c1ccc(CO)cc1` [4-hydroxytolbutamide], for which, at CYP2C9, the “Geometric LS mean ratio (90% CI), AUC0-∞” value is 0.918 (0.880, 0.958); the “Geometric LS mean ratio (90% CI), AUClast” value was 0.900 (0.868, 0.934); the “Geometric LS mean ratio (90% CI), Cmax” value was 0.881 (0.831, 0.934).

Consider `C[C@H]1O[C@@H](O[C@H]2[C@@H](O)C[C@H](O[C@H]3[C@@H](O)C[C@H](O[C@H]4CC[C@@]5(C)[C@H](CC[C@@H]6[C@@H]5C[C@@H](O)[C@]5(C)[C@@H](C7=CC(=O)OC7)CC[C@]65O)C4)O[C@@H]3C)O[C@@H]2C)C[C@H](O)[C@@H]1O` [digoxin], for which, on P-gp, the “Geometric LS mean ratio (90% CI), AUC0-∞” value is listed as 1.46 (1.29, 1.66); the “Geometric LS mean ratio (90% CI), AUClast” value is recorded as 1.53 (1.35, 1.74); the “Geometric LS mean ratio (90% CI), Cmax” value is on record as 2.35 (1.90, 2.90).

For `CC(=O)N(CC(O)CO)c1c(I)c(C(=O)NCC(O)CO)c(I)c(C(=O)NCC(O)CO)c1I` (stereo not shown) [iohexol, reference compound], in data set [1] (setting [4]), the “Mean iohexol PK parameters” value is given as “similar”. Also, the “aGFR estimated using the Jødal and Brøchner Mortensen equation (iohexol)” value was 94.99 mL/min/1.73 m^2 in data set [1] (metformin alone) and 94.56 mL/min/1.73 m^2 in data set [1] (metformin plus tucatinib).

For orientation: AUC means the area under the concentration-time curve, a measure of exposure. The low end stands for low exposure, the high end for high exposure. The AUC(0-t) is the area under the concentration-time curve up to a stated or last time point. High values mean more exposure, low ones less exposure. One may read the Cmax as the highest concentration seen after dosing. As a reminder, the AUC(0-inf) is the area under the concentration-time curve extrapolated to infinity. Low values mean less exposure, high ones more exposure. By Vd/F is commonly meant the volume of distribution divided by bioavailability. In the data set on MATE1/2K [2] (oral), `CN(C)C(=N)N=C(N)N` [metformin] yielded an AUC of 11600 ng·h/mL. In the data set with MATE1/2K [2] (oral, 850 mg), this compound returned an AUC of 8330 ng·h/mL, an exposure AUC(0-t) of 8150 ng·h/mL and a Cmax of 1310 ng/mL. In addition, in the data set with MATE1/2K [2] (po, 850 mg), the AUC(0-inf) worked out at 8610 ng·h/mL, the area under the curve AUC(0-t) turned out to be 8420 ng·h/mL, the Cmax came to 1330 ng/mL and the Vd/F is 695 L. Moreover, in the data set with MATE1/2K [3] (Metformin + tucatinib 300 mg bid at steady state, Day 8, N = 17), the “Plasma metformin CL/F, arithmetic mean (CV %)” value (“Plasma metformin CL/F … (CV %)” for short) worked out at 77.4 L/h. For the same compound, the “Plasma metformin CL/F … (CV %)” value in the data set on MATE1/2K [3] (Metformin + tucatinib 300 mg bid at steady state, Day 8, N = 17, listed as Metformin) is 77.4 (34.9) L/h. Besides, the “Plasma metformin CL/F … (CV %)” value with MATE1/2K [3] (Metformin alone, 850 mg oral, Day 1, N = 17) is recorded as 105.4 L/h. In the data set on MATE1/2K [3] (Metformin alone, 850 mg oral, Day 1, N = 17, listed as Metformin), the “Plasma metformin CL/F … (CV %)” value is reported as 105.4 (26.7) L/h. In the data set on MATE1/2K [3] (setting [5]), the “AUC0-last, geometric least-squares (LS) mean” value came out at 11054 ng·h/mL and the “Cmax, geometric least-squares (LS) mean” value stood at 1418 ng/mL. For the same compound, in the data set on MATE1/2K [3] (setting [4]), the “Increase of arithmetic mean metformin AUC0-inf” value was 1.409 fold, the “Increase of arithmetic mean metformin AUC0-last” value was 1.376 fold and the “Increase of arithmetic mean metformin Cmax” value worked out at 1.102 fold.

On to `Cc1ncc2n1-c1ccc(Cl)cc1C(c1ccccc1F)=NC2` [midazolam], for which, on CYP3A4, the “Geometric LS mean ratio (90% CI), AUC0-∞” value is recorded as 5.74 (5.05, 6.53); the “Geometric LS mean ratio (90% CI), AUClast” value is reported as 5.30 (4.65, 6.04); the “Geometric LS mean ratio (90% CI), Cmax” value is given as 3.01 (2.63, 3.45).

With `CCOc1cc(CC(=O)N[C@@H](CC(C)C)c2ccccc2N2CCCCC2)ccc1C(=O)O` [repaglinide], on CYP2C8, the “Geometric LS mean ratio (90% CI), AUC0-∞” value is 1.69 (1.51, 1.90); the “Geometric LS mean ratio (90% CI), AUClast” value was 1.72 (1.55, 1.91); the “Geometric LS mean ratio (90% CI), Cmax” value is listed as 1.69 (1.37, 2.10).
